Data: PubChem BioAssay AID2060907 (Molecular Pharmacology Branch, DTP, NCI, 2025)
One block for each compound: values may come before it.

Tested on: 388556-164-R-J1-PDC complex spheroid viability
Experiment: Anticancer human tumor 388556-164-R-J1-PDC patient-derived colon adenocarcinoma cell line growth inhibition [RAS]
Conditions: for IC50: curve of first compound; for viability, T/C: stronger effect = lower value
How it was run: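 Multi-cell-type spheroids: tumor cells plus HUVEC endothelial cells and mesenchymal stem cells. RAS-pathway inhibitors were combined with targeted agents, each dosed in half-log steps down from clinical Cmax, or from 10 microM when Cmax was unknown.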

[1] = second compound 0.000949 µM, first compound 0.0316 µM
[2] = second compound 0.000949 µM, first compound 0.1 µM
[3] = second compound 0.000949 µM, first compound 0.316 µM
[4] = second compound 0.000949 µM, first compound 1 µM
[5] = second compound 0.003 µM, first compound 0.0316 µM
[6] = second compound 0.003 µM, first compound 0.1 µM
[7] = second compound 0.003 µM, first compound 0.316 µM
[8] = second compound 0.003 µM, first compound 1 µM
[9] = second compound 0.00949 µM, first compound 0.0316 µM
[10] = second compound 0.00949 µM, first compound 0.1 µM
[11] = second compound 0.00949 µM, first compound 0.316 µM
[12] = second compound 0.00949 µM, first compound 1 µM
[13] = second compound 0.03 µM, first compound 0.0316 µM
[14] = second compound 0.03 µM, first compound 0.1 µM
[15] = second compound 0.03 µM, first compound 0.316 µM
[16] = second compound 0.03 µM, first compound 1 µM
[17] = second compound 0.0949 µM, first compound 0.0316 µM
[18] = second compound 0.0949 µM, first compound 0.1 µM
[19] = second compound 0.0949 µM, first compound 0.316 µM
[20] = second compound 0.0949 µM, first compound 1 µM
[21] = second compound 0.3 µM, first compound 0.0316 µM
[22] = second compound 0.3 µM, first compound 0.1 µM
[23] = second compound 0.3 µM, first compound 0.316 µM
[24] = second compound 0.3 µM, first compound 1 µM
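Also: spheroids exposed to compound for 7 days before readout.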
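For viability, T/C in this document: 100% = DMSO vehicle control luminescence.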

- IC50 (second compound 0.000949 µM): > 300 nM
- IC50 (second compound 0.003 µM): > 300 nM
- IC50 (second compound 0.00949 µM): > 300 nM
- IC50 (second compound 0.03 µM): > 300 nM
- IC50 (second compound 0.0949 µM): 3.41 nM
- IC50 (second compound 0.3 µM): < 0.949 nM
Compound: CC1(C)CCC(Nc2ncc(C(F)(F)F)c(-c3c[nH]c4c(P(C)(C)=O)c(C#N)ccc34)n2)CN1 (stereo unspecified) + CCn1c(-c2cc(N3CCN(C)CC3)cnc2C(C)OC)c2c3cc(ccc31)-c1csc(n1)CC(NC(=O)C1CC1C)C(=O)N1CCCC(N1)C(=O)OCC(C)(C)C2
- viability, T/C (second compound 0.000949 µM, first compound 0.000949 µM): 104%
- viability, T/C (second compound 0.000949 µM, first compound 0.003 µM): 87.9%
- viability, T/C (second compound 0.000949 µM, first compound 0.00949 µM): 98.1%
- viability, T/C (second compound 0.000949 µM, first compound 0.03 µM): 78.5%
- viability, T/C (second compound 0.000949 µM, first compound 0.0949 µM): 83.8%
- viability, T/C (second compound 0.000949 µM, first compound 0.3 µM): 84.9%
- viability, T/C (second compound 0.003 µM, first compound 0.000949 µM): 101%
- viability, T/C (second compound 0.003 µM, first compound 0.003 µM): 86.9%
- viability, T/C (second compound 0.003 µM, first compound 0.00949 µM): 82.5%
- viability, T/C (second compound 0.003 µM, first compound 0.03 µM): 86.8%
- viability, T/C (second compound 0.003 µM, first compound 0.0949 µM): 85.3%
- viability, T/C (second compound 0.003 µM, first compound 0.3 µM): 77.1%
- viability, T/C (second compound 0.00949 µM, first compound 0.000949 µM): 84.2%
- viability, T/C (second compound 0.00949 µM, first compound 0.003 µM): 73.3%
- viability, T/C (second compound 0.00949 µM, first compound 0.00949 µM): 75.8%
- viability, T/C (second compound 0.00949 µM, first compound 0.03 µM): 72.5%
- viability, T/C (second compound 0.00949 µM, first compound 0.0949 µM): 74.6%
- viability, T/C (second compound 0.00949 µM, first compound 0.3 µM): 68.9%
- viability, T/C (second compound 0.03 µM, first compound 0.000949 µM): 77.4%
- viability, T/C (second compound 0.03 µM, first compound 0.003 µM): 70%
- viability, T/C (second compound 0.03 µM, first compound 0.00949 µM): 64.5%
- viability, T/C (second compound 0.03 µM, first compound 0.03 µM): 67.9%
- viability, T/C (second compound 0.03 µM, first compound 0.0949 µM): 71.6%
- viability, T/C (second compound 0.03 µM, first compound 0.3 µM): 58.2%
- viability, T/C (second compound 0.0949 µM, first compound 0.000949 µM): 55.5%
- viability, T/C (second compound 0.0949 µM, first compound 0.003 µM): 47.1%
- viability, T/C (second compound 0.0949 µM, first compound 0.00949 µM): 47.9%
- viability, T/C (second compound 0.0949 µM, first compound 0.03 µM): 44.1%
- viability, T/C (second compound 0.0949 µM, first compound 0.0949 µM): 48.8%
- viability, T/C (second compound 0.0949 µM, first compound 0.3 µM): 46.1%
- viability, T/C (second compound 0.3 µM, first compound 0.000949 µM): 33%
- viability, T/C (second compound 0.3 µM, first compound 0.003 µM): 34.5%
- viability, T/C (second compound 0.3 µM, first compound 0.00949 µM): 33.1%
- viability, T/C (second compound 0.3 µM, first compound 0.03 µM): 35.9%
- viability, T/C (second compound 0.3 µM, first compound 0.0949 µM): 41.5%
- viability, T/C (second compound 0.3 µM, first compound 0.3 µM): 37.4%

- IC50 (second compound 0.000949 µM): > 10000 nM
- IC50 (second compound 0.003 µM): > 10000 nM
- IC50 (second compound 0.00949 µM): 510 nM
- IC50 (second compound 0.03 µM): < 31.6 nM
- IC50 (second compound 0.0949 µM): < 31.6 nM
- IC50 (second compound 0.3 µM): < 31.6 nM
Compound: CC(=O)OC12COC1CC(O)C1(C)C(=O)C(O)C3=C(C)C(OC(=O)C(O)C(NC(=O)OC(C)(C)C)c4ccccc4)CC(O)(C(OC(=O)c4ccccc4)C21)C3(C)C (stereo unspecified) + CCn1c(-c2cc(N3CCN(C)CC3)cnc2C(C)OC)c2c3cc(ccc31)-c1csc(n1)CC(NC(=O)C1CC1C)C(=O)N1CCCC(N1)C(=O)OCC(C)(C)C2
- viability, T/C [1]: 77.2%
- viability, T/C [2]: 63.2%
- viability, T/C [3]: 63.7%
- viability, T/C [4]: 66.1%
- viability, T/C (second compound 0.000949 µM, first compound 3.16 µM): 69.2%
- viability, T/C (second compound 0.000949 µM, first compound 10 µM): 59.6%
- viability, T/C [5]: 76.4%
- viability, T/C [6]: 61.6%
- viability, T/C [7]: 54%
- viability, T/C [8]: 59.1%
- viability, T/C (second compound 0.003 µM, first compound 3.16 µM): 55.1%
- viability, T/C (second compound 0.003 µM, first compound 10 µM): 50.4%
- viability, T/C [9]: 65.3%
- viability, T/C [10]: 57.1%
- viability, T/C [11]: 52.8%
- viability, T/C [12]: 43.9%
- viability, T/C (second compound 0.00949 µM, first compound 3.16 µM): 50.4%
- viability, T/C (second compound 0.00949 µM, first compound 10 µM): 41.2%
- viability, T/C [13]: 46.9%
- viability, T/C [14]: 42.3%
- viability, T/C [15]: 40.1%
- viability, T/C [16]: 44.1%
- viability, T/C (second compound 0.03 µM, first compound 3.16 µM): 41.2%
- viability, T/C (second compound 0.03 µM, first compound 10 µM): 32%
- viability, T/C [17]: 44.1%
- viability, T/C [18]: 34.9%
- viability, T/C [19]: 34.9%
- viability, T/C [20]: 32.4%
- viability, T/C (second compound 0.0949 µM, first compound 3.16 µM): 31.1%
- viability, T/C (second compound 0.0949 µM, first compound 10 µM): 25.4%
- viability, T/C [21]: 27.4%
- viability, T/C [22]: 27.9%
- viability, T/C [23]: 28%
- viability, T/C [24]: 30.1%
- viability, T/C (second compound 0.3 µM, first compound 3.16 µM): 27.8%
- viability, T/C (second compound 0.3 µM, first compound 10 µM): 24.4%

- IC50 (second compound 0.000949 µM): > 1000 nM
- IC50 (second compound 0.003 µM): > 1000 nM
- IC50 (second compound 0.00949 µM): > 1000 nM
- IC50 (second compound 0.03 µM): > 1000 nM
- IC50 (second compound 0.0949 µM): > 1000 nM
- IC50 (second compound 0.3 µM): > 1000 nM
Compound: Nc1ccn(C2OC(CO)C(O)C2(F)F)c(=O)n1 (stereo unspecified) + CCn1c(-c2cccnc2C(C)OC)c2c3cc(ccc31)N1CCOC(CC(NC(=O)C(C(C)C)N(C)C(=O)C3(F)CCN(C(=O)C#CC(C)(C)N(C)C)CC3)C(=O)N3CCCC(N3)C(=O)OCC(C)(C)C2)C1
- viability, T/C (second compound 0.000949 µM, first compound 0.00316 µM): 96%
- viability, T/C (second compound 0.000949 µM, first compound 0.01 µM): 85.5%
- viability, T/C [1]: 77.4%
- viability, T/C [2]: 71.8%
- viability, T/C [3]: 71.6%
- viability, T/C [4]: 64.1%
- viability, T/C (second compound 0.003 µM, first compound 0.00316 µM): 102%
- viability, T/C (second compound 0.003 µM, first compound 0.01 µM): 90.5%
- viability, T/C [5]: 76.8%
- viability, T/C [6]: 72.1%
- viability, T/C [7]: 72.4%
- viability, T/C [8]: 65.8%
- viability, T/C (second compound 0.00949 µM, first compound 0.00316 µM): 99.1%
- viability, T/C (second compound 0.00949 µM, first compound 0.01 µM): 91.8%
- viability, T/C [9]: 78.6%
- viability, T/C [10]: 69.4%
- viability, T/C [11]: 70%
- viability, T/C [12]: 64.5%
- viability, T/C (second compound 0.03 µM, first compound 0.00316 µM): 98.4%
- viability, T/C (second compound 0.03 µM, first compound 0.01 µM): 92.7%
- viability, T/C [13]: 79%
- viability, T/C [14]: 67.5%
- viability, T/C [15]: 70.6%
- viability, T/C [16]: 61.7%
- viability, T/C (second compound 0.0949 µM, first compound 0.00316 µM): 90.6%
- viability, T/C (second compound 0.0949 µM, first compound 0.01 µM): 86.3%
- viability, T/C [17]: 74.7%
- viability, T/C [18]: 67.6%
- viability, T/C [19]: 68.1%
- viability, T/C [20]: 62.2%
- viability, T/C (second compound 0.3 µM, first compound 0.00316 µM): 81.7%
- viability, T/C (second compound 0.3 µM, first compound 0.01 µM): 78%
- viability, T/C [21]: 69.8%
- viability, T/C [22]: 68.4%
- viability, T/C [23]: 67.2%
- viability, T/C [24]: 59.5%
